Measurements as given in US5428020A, “Cysteine (NPYS)-containing peptides and use thereof for inhibiting platelet aggregation” (Matsueda; Rei, priority 1994, dated 1995).
* marks the point of attachment. Npys = O=[N+]([O-])c1cccnc1S*

Assays:
papain = target: T1, papain (Carica papaya, UniProt P00784); settings: Teno et al., Int. J. Peptide Protein Res. 30, 93-98 (1987); cited from earlier work
T1 sequence (P00784 134-345): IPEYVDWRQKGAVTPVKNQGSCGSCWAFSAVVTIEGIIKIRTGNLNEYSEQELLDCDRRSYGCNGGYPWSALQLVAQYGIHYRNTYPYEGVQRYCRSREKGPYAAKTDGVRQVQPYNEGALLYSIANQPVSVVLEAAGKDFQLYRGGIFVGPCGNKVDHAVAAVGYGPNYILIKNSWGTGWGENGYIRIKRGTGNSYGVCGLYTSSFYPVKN

human platelets = assay: Inhibition of agonist-induced aggregation of washed human platelets (aggregometer); assay type: cell-based; design: key to Inhibition of platelet aggregation, PMA / Inhibition of platelet aggregation, Thrombin / Inhibition of platelet aggregation, Plasmin / Inhibition of platelet aggregation, ADP / Inhibition of platelet aggregation, Collagen / Inhibition of platelet aggregation, U46619 / Inhibition of platelet aggregation, A23187: "+" indicates inhibition of platelet aggregation; "-" indicates the absence of inhibition of platelet aggregation; "partial" indicates a partial inhibition of platelet aggregation; settings: for Inhibition of platelet aggregation, A23187: agonist A23187 2.5 uM; for Inhibition of platelet aggregation, A23187 / Inhibition of platelet aggregation, ADP / Inhibition of platelet aggregation, PMA / Inhibition of platelet aggregation, U46619 / Inhibition of platelet aggregation, Collagen / Inhibition of platelet aggregation, Plasmin / Inhibition of platelet aggregation, Thrombin: inhibitor peptide 0.8 nm, 37° C.; for Inhibition of platelet aggregation, ADP: agonist ADP 20 uM; for Inhibition of platelet aggregation, PMA: agonist PMA 0.016 uM; for Inhibition of platelet aggregation, U46619: agonist U46619 1 uM; for Inhibition of platelet aggregation, Collagen: agonist collagen 4 ug/ml; for Inhibition of platelet aggregation, Plasmin: agonist plasmin 0.025 uM; for Inhibition of platelet aggregation, Thrombin: agonist thrombin 0.02 uM
Experimental: Platelet-rich plasma was prepared by differential centrifugation (120×g, 30 min, 23° C.) of fresh whole human blood drawn into acid/citrate/dextrose (citric acid 0.079 M, sodium citrate, 0.085 M and dextrose 0.180 M) in a ratio of 1 ml of anticoagulant solution per 9 ml of blood. The platelets were washed and their suspensions prepared by a modification of the method of Mustard, et al., Brit. J. Haemat. 22, 193-204 (1972). The modifications included incubation of platelet-rich plasma with prostaglandin E1, hirudin and apyrase and two successive washes of the platelets with Tyrode-albumin buffer (without Ca^++) containing hirudin and apyrase, and apyrase alone. Platelet aggregation in the presence of each agonist and inhibitor peptide (0.8 nm) was performed at 37° C. under constant stirring (1100 rpm) conditions in a chronolog (Lumi) aggregometer. The total volume of the incubation mixture in the sample cuvette was 500 μl and the platelet concentration was adjusted to 5×10^8 /ml. The reference cuvette contained the suspension buffer. Platelet aggregation was initiated by the addition of the agonist to the sample cuvette. The data is indicated in the following table wherein "+" indicates inhibition of platelet aggregation, "-" indicates the absence of inhibition of platelet aggregation, and "partial" indicates a partial inhibition of platelet aggregation.

calpain = assay: Calpain inhibition, fluorogenic substrate succinyl-Leu-Tyr-amino-4-methylcumarin; assay type: biochemical; settings: 90 mM calpain; 1 mM substrate; 25° C.; pH 7.5; 5 mM CaCl2; read-out: Calpain Inhibitory Potency IC50
Experimental: 77, 1565 (1986). A calpain preparation (5~10 μl) was placed on a floating filter membrane (Marusyk et al., Anal. Biochem. 105, 403 (1980)) (Millipore type VMWP) over a buffer containing 50 mM Tris/HCl, pH 7.5 and 2.5 mM EDTA for 45-60 minutes, carefully removed and used for the following inhibition study. Aliquots (25 μl) of the enzyme (calpain) and buffer or synthetic peptide were added to a cuvette at 25° C. containing 1 mM succinyl-Leu-Tyr-amino-4-methylcumarin as the substrate in a buffer consisting of 60 mM Tris/HCl, pH 7.5, 2.5% DMSO and 5 mM CaCl2. The rate of substrate hydrolysis was continuously recorded on a Perkin-Elmer LS-5 fluorescence spectrophotometer connected to a R100 chart recorder. […] The IC50 was calculated from the dose-dependent curve for each inhibitor. The IC50 corresponds to that concentration of inhibitory peptide that produced 50% inhibition of calpain activity. In all cases, […] was utilized.

platelets [1] = assay: Platelet shape change induced by thrombin and plasmin; assay type: cell-based, human
thrombin [2] = target: T2, thrombin (Homo sapiens, UniProt P00734); assay: Fibrinogenolytic activity of thrombin; assay type: biochemical
plasmin = plasmin (Homo sapiens, UniProt P00747); assay: Amidolytic activity of plasmin; assay type: biochemical
platelets [3] = assay: Platelet cAMP levels; assay type: cell-based, human
aggregen = assay: Thrombin- and plasmin-induced cleavage of labeled aggregen in intact radiolabeled platelets; assay type: cell-based, human
thrombin [4] = target: T2, thrombin; assay: Amidolytic activity of thrombin; assay type: biochemical

Sequence of plasmin (P00747 581-810 limits assumed, species assumed): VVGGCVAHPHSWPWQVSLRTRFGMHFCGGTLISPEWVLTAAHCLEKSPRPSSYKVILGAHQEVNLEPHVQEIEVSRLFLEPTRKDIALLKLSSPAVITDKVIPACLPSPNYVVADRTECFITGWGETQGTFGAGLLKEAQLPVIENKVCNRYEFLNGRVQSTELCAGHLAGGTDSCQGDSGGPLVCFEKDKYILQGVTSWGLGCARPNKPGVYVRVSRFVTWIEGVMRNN
Sequence of plasmin (P00747 97-580 partner limits assumed, species assumed): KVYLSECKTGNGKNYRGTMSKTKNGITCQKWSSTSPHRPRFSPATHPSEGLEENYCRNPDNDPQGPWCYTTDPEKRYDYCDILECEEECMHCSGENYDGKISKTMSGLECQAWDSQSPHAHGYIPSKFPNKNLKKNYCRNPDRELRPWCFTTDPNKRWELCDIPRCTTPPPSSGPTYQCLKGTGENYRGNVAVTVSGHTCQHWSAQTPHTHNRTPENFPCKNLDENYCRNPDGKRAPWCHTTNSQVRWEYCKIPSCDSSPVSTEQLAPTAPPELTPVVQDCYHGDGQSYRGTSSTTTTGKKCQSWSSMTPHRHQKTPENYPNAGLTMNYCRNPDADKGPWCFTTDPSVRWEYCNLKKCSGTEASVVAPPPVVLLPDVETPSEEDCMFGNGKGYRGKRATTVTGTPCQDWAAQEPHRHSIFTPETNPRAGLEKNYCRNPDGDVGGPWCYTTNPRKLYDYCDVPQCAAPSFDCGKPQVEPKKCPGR

IC50 (calpain) | Substance | activity in inhibiting the thiol protease papain (papain) | Inhibition of platelet aggregation, A23187 (human platelets) | Inhibition of platelet aggregation, ADP (human platelets) | Inhibition of platelet aggregation, PMA (human platelets) | Inhibition of platelet aggregation, U46619 (human platelets) | Inhibition of platelet aggregation, Collagen (human platelets) | Inhibition of platelet aggregation, Plasmin (human platelets) | Inhibition of platelet aggregation, Thrombin (human platelets) | aggregation induced by any of the other agonists tested (human platelets; agonists other than thrombin and plasmin) | effect on platelet shape change introduced by thrombin and plasmin (platelets [1]) | inhibition of fibrinogenolytic activity of thrombin (thrombin [2]) | inhibition of amidolytic activity of plasmin (plasmin) | platelet-cAMP levels (platelets [3]) | thrombin- and plasmin induced cleavage of [^3 H]-5'-p-fluorosulfonylbenzoyl adenosine-labeled aggregen (aggregen) | inhibition of amidolytic activity of thrombin (thrombin [4])
16 µM | TFA.H-Ala-Gln-Val-Val-CYs (NpyS)-GlY-NH2 (H-AQVV-{Cys(NpyS)-Gly-NH2}; also: TFA salt) [Example 4] |  | partial | + | + | + | + | + | + |  |  |  |  |  |  | 
55 µM | TFA.H-Arg-Gln-Val-Val-Cys(NPYS)-GlY-NH2 (H-RQVVC(Npys)G-NH2; also: TFA salt) [Example 3] |  | partial | + | + | + | + | + | + |  |  |  |  |  |  | 

More lines, now with the values behind:

Substance | IC50 (calpain) | activity in inhibiting the thiol protease papain (papain) | Inhibition of platelet aggregation, A23187 (human platelets) | Inhibition of platelet aggregation, ADP (human platelets) | Inhibition of platelet aggregation, PMA (human platelets) | Inhibition of platelet aggregation, U46619 (human platelets) | Inhibition of platelet aggregation, Collagen (human platelets) | Inhibition of platelet aggregation, Plasmin (human platelets) | Inhibition of platelet aggregation, Thrombin (human platelets) | aggregation induced by any of the other agonists tested (human platelets; agonists other than thrombin and plasmin) | effect on platelet shape change introduced by thrombin and plasmin (platelets [1]) | inhibition of fibrinogenolytic activity of thrombin (thrombin [2]) | inhibition of amidolytic activity of plasmin (plasmin) | platelet-cAMP levels (platelets [3]) | thrombin- and plasmin induced cleavage of [^3 H]-5'-p-fluorosulfonylbenzoyl adenosine-labeled aggregen (aggregen) | inhibition of amidolytic activity of thrombin (thrombin [4])
Gln-Val-Val-Ala-Gly (QVVAG; printed: Gln-Val-Val-Ala-Gly) [QVAAG, pentapeptide of kininogen D2 and D3 repeats] |  | weak activity |  |  |  |  |  |  |  |  |  |  |  |  |  | 
TFA.H-Gln-Val-Val-Cys(NpyS)-Gly-NH2 (H-QVVC(Npys)G-NH2; also: TFA salt) [Example 5] | 36 µM |  | partial | + | + | + | + | + | + |  |  |  |  |  |  | 
TFA.H-Phe-Gln-Leu-Val-Cys(NpyS)-Gly-NH2 (H-FQLVC(Npys)G-NH2; also: TFA salt) [Example 2] | 5.6 µM |  | partial | partial | partial | partial | partial | + | + |  |  |  |  |  |  | 
TFA.H-Phe-Gln-Val-Val-Cys(NpyS)-Gly-NH2 (H-FQVVC(Npys)G-NH2; also: TFA salt) [Example 1] | 4.1 µM |  | - | - | - | - | - | + | + | did not inhibit | no effect | did not inhibit | did not inhibit | did not raise | completely inhibited | did not inhibit
